Series [1] can be described thus: Proteolysis assay with trypsin or chymotrypsin, LC-MS. Format: in vitro ADME. The settings on record: isolated enzyme several chymotrypsin trypsin, pH 8.1; after 10 minutes with protease (trypsin/chymotrypsin), 37° C.; read-out: intact peptide observed. The method, then:
100 μL of peptide (100 μM) in phosphate buffer (pH 8.1) was mixed and incubated with 40 μL of the protease solution (trypsin—70 μg/mL; chymotrypsin—50 μg/mL) at 37° C. Aliquots of 35 μL were quenched with 55 μL of 1% TFA solution in MeCN and subjected to LC-MS analysis at 10, 25 and 40 minutes respectively. Peptide concentrations at different time points were quantified by integration of the TIC trace relative to the starting peptide sample. Note, that in the case of experiments with unstapled peptide 7, <1% of the intact peptide was observed after 10 minutes.

Another series relates to HEK293T cells. Put plainly: Confocal microscopy cell imaging of FITC-labeled peptide uptake. Format: cell-based. The settings on record: 5 μM, 4 hours. The method, then:
293T HEK cells were cultured with DMEM with 10% FBS (v/v) in imaging dishes (70K cells/well) in 37° C., 5% CO2 incubator for two days until they are about 70% confluent. Appropriate amounts of peptides 7, 7a, 7b, 8a and 8b dissolved in autoclaved H2O were added to the cells to final concentrations of 5 μM. Peptide 9 was first dissolved in DMSO to make a 200 μM stock and then added to cells to a final concentration of 5 μM. The cells were incubated with the samples for 4 hours at 37° C. and 5% CO2. After incubation, cells were washed 3 times with DPBS and then fixed with 4% formaldehyde in DPBS for 10 minutes. They are then washed 3 times with HBSS and stained with 5 μg/mL wheat germ agglutinin-tetramethylrhodamine conjugate in HBSS for 20 minutes. The cells were subsequently washed with HBSS once and DPBS twice and stained with 5 μg/mL diamidino-2-phenylindole (DAPI) in DPBS for 30 minutes. They were washed 3 times with DPBS and covered in one drop of pri-Gold and cover slide. Images of peptide localization in cells were taken on PerkinElmer Ultraview Spinning Disk Confocal with 30% of its maximum laser power in 488 channel with 500 ms exposure time and 0.5 μm Z-stacking Image processing was done using Volocity software package (PerkinElmer).

A short description of series [2]: Temperature-dependent melting from CD spectra at 222 nm. It is filed as physicochemical. As to conditions: CD at 222 nm. The protocol: CD measurements were done with Aviv 202 spectrometer using 1 mm quartz cuvette. Peptide solutions were made by dissolving solid samples in 25% acetonitrile/water mixture, CD spectra of 3a and 3b were measured in acetonitrile, CD spectra of affibodies was collected in 10 mM phosphate buffer. Concentration of affibodies was estimated by UV absorbance measurements at 280 nm. Contribution of the perfluorinated staple in 6a on the absorbance value at 280 nm was taken into account (estimated molar extinction coefficient for [—S—C6F4—S-]˜5000 cm^−1M^−1 from UV measurements of solutions of 6 and 6a) in these measurements. Data processing included solvent background correction (subtraction) and adjustment for pathlength and concentration (MRE=[θ]λ=θobs×1/(10 lcn); θobs=measured ellipticity, θ=mean residual ellipticity in deg×cm^2×dmol^−1, 1=pathlength (cm); c=concentration of peptide (M); n=# of amino acids). α-helicities of the peptides were estimated using previously established methods.

As for `CC[C@H](C)[C@H](NC(=O)CCNC(=S)Nc1ccc(-c2c3ccc(=O)cc-3oc3cc(O)ccc23)c(C(=O)O)c1)C(=O)N[C@H](C(=O)N[C@@H](Cc1ccccc1)C(=O)N[C@@H](CSCC(N)=O)C(=O)N[C@@H](CC(=O)O)C(=O)N[C@@H](CC(C)C)C(=O)N[C@@H](CC(C)C)C(=O)N[C@@H](CSCC(N)=O)C(=O)N[C@@H](Cc1ccc(O)cc1)C(=O)N[C@@H](Cc1ccc(O)cc1)C(=O)NCC(=O)N[C@@H](CCCCN)C(=O)N[C@@H](CCCCN)C(=O)N[C@@H](CCCCN)C(N)=O)[C@@H](C)O` [Peptide 7], the remaining at 10 min in series [1] was under 1%. In addition, the “cellular uptake (confocal microscopy)” value with HEK293T cells is listed as “no fluorescent positive cells”.
On to “Affibody 10a: HER-2 affibody with perfluoroaryl staple at Cys42, Cys46 on the C-terminal helix”, for which, in series [2], the “temperature dependent melting properties” value is given as “not compromised”.

Values taken from patent publication US9018172B2, “Modification of peptides via SNAr reactions of thiols with fluorinated aromatics” (Massachusetts Institute of Technology, priority 2012, dated 2015).
